In article PMC9401038 (Angewandte Chemie (International Ed. in English), 2022):
Several values for one entry are separate records, joined by “and”; a condition that tells them apart may be missing. Identical values can stand only once.

Assays:
[1] = Photostationary state quantification by 1H‐NMR; format: physicochemical; conditions: 12 °C, 100 μM in D2O
[2] = UV/Vis photochemical characterization; format: physicochemical
β2‐AR = β2‐AR (Homo sapiens, UniProt P07550); experiment: β2‐AR inhibition of cimaterol-stimulated cAMP in HEK293 H188 M1 cells; conditions: in the dark and upon illumination at 380 nm, cimaterol 3 nM
Chain of β2‐AR (P07550 whole entry): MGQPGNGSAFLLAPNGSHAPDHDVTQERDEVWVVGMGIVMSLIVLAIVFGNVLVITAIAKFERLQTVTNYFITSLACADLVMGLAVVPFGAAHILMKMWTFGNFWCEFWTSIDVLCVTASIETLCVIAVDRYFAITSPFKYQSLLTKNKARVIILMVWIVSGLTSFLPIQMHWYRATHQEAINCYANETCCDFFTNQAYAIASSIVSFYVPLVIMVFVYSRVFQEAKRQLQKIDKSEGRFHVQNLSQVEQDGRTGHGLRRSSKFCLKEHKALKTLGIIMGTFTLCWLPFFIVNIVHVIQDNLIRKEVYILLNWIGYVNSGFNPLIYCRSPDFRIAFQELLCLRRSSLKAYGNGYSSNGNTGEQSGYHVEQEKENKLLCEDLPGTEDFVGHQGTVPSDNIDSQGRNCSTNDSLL

β1‐AR = β1‐AR (Homo sapiens, UniProt P08588); experiment: β1‐AR functional cAMP assay; format: cell-based
Chain of β1‐AR (P08588 whole entry): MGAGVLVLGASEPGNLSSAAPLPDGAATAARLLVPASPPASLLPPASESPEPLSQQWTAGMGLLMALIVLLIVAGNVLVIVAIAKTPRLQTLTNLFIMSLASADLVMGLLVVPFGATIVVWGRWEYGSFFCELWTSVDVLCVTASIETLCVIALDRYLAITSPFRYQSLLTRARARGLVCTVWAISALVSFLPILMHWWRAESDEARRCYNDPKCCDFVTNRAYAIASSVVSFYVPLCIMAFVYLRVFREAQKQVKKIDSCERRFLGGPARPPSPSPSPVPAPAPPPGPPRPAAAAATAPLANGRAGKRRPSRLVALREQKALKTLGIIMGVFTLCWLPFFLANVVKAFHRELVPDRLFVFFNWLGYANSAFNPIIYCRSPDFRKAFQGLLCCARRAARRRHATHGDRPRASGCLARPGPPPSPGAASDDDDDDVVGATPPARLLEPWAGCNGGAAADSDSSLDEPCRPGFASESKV

[3] = tested on: zebrafish larvae cardiac rhythm; experiment: Cardiac frequency monitoring in zebrafish larvae under dark/380 nm/550 nm; format: in vivo; conditions: 10 μM, 7 dpf larvae, dark and both illumination conditions equivalent
[4] = 50 μM in Epac buffer+0.5 % DMSO, 25–28 °C

Row | SMILES | PSS365 ([1]; after 365 nm illumination) [%cis] | PSS530 ([1]; after 525 nm illumination) | τ cis→trans [2] [s⁻¹] | λ n‐π* (cis) [2, 4] [nm] | λ π‐π* (trans) [2, 4] [nm] | t 1/2 (thermal relaxation of cis isomer) ([2]; 50 μM in Epac buffer+0.5 % DMSO, 28 °C, after 3 min 365 nm) [h] | τ trans→cis ([2]; 365 nm, CoolLED 5 % intensity (0.1 mW mm^−2), 50 μM in Epac buffer+0.5 % DMSO) [s⁻¹] | IC50 values against β2‐AR (β2‐AR) | EC50 (β1‐AR; EC50 DARK, dark (trans isomer)) [nM] | EC50 (β1‐AR; EC50 LIGHT, constant violet light 380 nm (cis isomer)) [nM] | β1/β2 ratio DARK (β1‐AR; dark, ratio of 1 implies no selectivity towards β1‐AR) | functional profile towards β1‐AR (β1‐AR; two β1‐AR expression levels) | β1/β2 ratio LIGHT (β1‐AR; violet light 380 nm, ratio of 1 implies no selectivity) | PPS (Photoinduced Potency Shift) (β1‐AR; β1‐AR, relation between EC50 in light and dark) | cardiac rhythm [3]
1 | CC(C)NC[C@H](O)COc1ccc(/N=N/c2ccccc2)cc1 [pAzo‐1] | 95 | 76.3 % trans and 76 % trans | 57.6 | 430 | 346 | 67.6 | 4.4 | within the μM range | 15.1 | 331 | 161.8 | low efficacy partial agonists | 8.6 | 20.08 | –
2 | COc1ccccc1OCCNCC(O)COc1cccc2[nH]c3ccccc3c12 (stereo not drawn) [Carvedilol, carvedilol] | – | – | – | – | – | – | – | – | – | – | – | – | – | – | significant reduction in the cardiac rhythm
